Test system: DLD-1 cells (human colorectal cancer cells)
Experiment: Cell viability (MTS) drug combination assay, combination index
Type: cell-based
Conditions: combination with 17-AAG, CI<1 synergism
Experimental: Human colon adenocarcinoma cell line, DLD-1, and human breast adenocarcinoma cell line, SKBr-3, were obtained from American Type Culture Collection (manassas, VA). DLD-1 cells were maintained in RPMI 1640 medium supplemented with 10% fetal bovine serum, and SKBr-3 cells were cultured in McCoy's 5a medium supplemented with 10% fetal bovine serum. 17-DMAG and 17-AAG were obtained using published procedures. Other cytotoxic agents were purchased commercially from suppliers such as Sigrna Chemical Co. (St. Louis, Mo.) and Sequoia Research Products (Oxford, UK).
Cells were seeded in duplicate in 96-well microtiter plates at a density of 5,000 cells per well and allowed to attach overnight. […] Cell viability was determined using the MTS assay (Promega). […] Cell viability was determined by the MTS assay.
Synergism, additivity or antagonism was determined by median effect analysis using the combination index (CI) calculated using Calcusyn (Biosoft, Cambridge, UK). The combination index is defined as follows: CI=[D]1/[Dx]1+[D]2/[Dx]2 The quantities [D]1 and [D]2 represent the concentrations of the first and second drug, respectively, that in combination provide a response of x % in the assay. The quantities [Dx]1 and [Dx]2 represent the concentrations of the first and second drug, respectively, that when used alone provide a response of x % in the assay. […]

## callystatin
17-AAG given 24 hours before the nuclear export inhibitor (48 hours)
  CI value, 17-AAG Pre-Administration: 0.95 ± 0.04
Nuclear export inhibitor alone 24 hours, then 17-AAG for 48 hours
  CI value, 17-AAG Post-Administration: 0.81 ± 0.06

— patent US20050054625A1, “Method for treating diseases using HSP90-inhibiting agents in combination with nuclear export inhibitors” (Kosan Biosciences, Inc., priority 2003, published 2005)
